Reference: ChEMBL document CHEMBL1155520, “Novel 8a-aza-8a-homoerythromycin--4''-(3-substituted-amino)propionates with broad spectrum antibacterial activity” (2010)
≈ marks a conversion by molar mass, not a printed value.

Assays:
Assay type in all cases: functional
Streptococcus pneumoniae [1] = experiment: Antimicrobial activity against macrolide-resistant Streptococcus pneumoniae Ci137
Haemophilus influenzae = experiment: Antimicrobial activity against Haemophilus influenzae ATCC 49247
Streptococcus pyogenes [2] = experiment: Antimicrobial activity against macrolide-sensitive Streptococcus pyogenes 3665
Streptococcus pyogenes [3] = experiment: Antimicrobial activity against inducible macrolide, lincosamide, streptogramin-resistant Streptococcus pyogenes Finland 11
Streptococcus pneumoniae [4] = experiment: Antimicrobial activity against macrolide-sensitive Streptococcus pneumoniae SPO 30
Streptococcus pneumoniae [5] = experiment: Antimicrobial activity against inducible macrolide and constitutive lincosamide, streptogramin-resistant Streptococcus pneumoniae 4636
Staphylococcus aureus = experiment: Antimicrobial activity against macrolide-sensitive Staphylococcus aureus ATCC 13709

Compound: CC[C@H]1OC(=O)[C@H](C)[C@@H](O[C@H]2C[C@@](C)(OC)[C@@H](OC(=O)CCNCC(=O)Nc3ccc([N+](=O)[O-])cc3)[C@H](C)O2)[C@H](C)[C@@H](O[C@@H]2O[C@H](C)C[C@H](N(C)C)[C@H]2O)[C@](C)(O)C[C@@H](C)NC(=O)[C@H](C)[C@@H](O)[C@]1(C)O
- MIC (Streptococcus pneumoniae [1]): 4 µg/mL (≈ 4.01 µM)
- MIC (Haemophilus influenzae): 8 µg/mL (≈ 8.01 µM)
- MIC (Streptococcus pyogenes [2]): < 0.13 µg/mL
- MIC (Streptococcus pyogenes [3]): 4 µg/mL (≈ 4.01 µM)
- MIC (Streptococcus pneumoniae [4]): < 0.13 µg/mL
- MIC (Streptococcus pneumoniae [5]): 32 µg/mL (≈ 32.1 µM)
- MIC (Staphylococcus aureus): 2 µg/mL (≈ 2 µM)

Compound: CC[C@H]1OC(=O)[C@H](C)[C@@H](O[C@H]2C[C@@](C)(OC)[C@@H](OC(=O)CCN3CCN(C(=O)c4ccco4)CC3)[C@H](C)O2)[C@H](C)[C@@H](O[C@@H]2O[C@H](C)C[C@H](N(C)C)[C@H]2O)[C@](C)(O)C[C@@H](C)NC(=O)[C@H](C)[C@@H](O)[C@]1(C)O
- MIC (Streptococcus pneumoniae [1]): 2 µg/mL (≈ 2.03 µM)
- MIC (Haemophilus influenzae): 16 µg/mL (≈ 16.3 µM)
- MIC (Streptococcus pyogenes [2]): < 0.13 µg/mL
- MIC (Streptococcus pyogenes [3]): 8 µg/mL (≈ 8.14 µM)
- MIC (Streptococcus pneumoniae [4]): < 0.13 µg/mL
- MIC (Streptococcus pneumoniae [5]): > 64 µg/mL
- MIC (Staphylococcus aureus): 4 µg/mL (≈ 4.07 µM)

Compound: CC[C@H]1OC(=O)[C@H](C)[C@@H](O[C@H]2C[C@@](C)(OC)[C@@H](OC(=O)CCNCC(=O)Nc3ccc4ccccc4c3)[C@H](C)O2)[C@H](C)[C@@H](O[C@@H]2O[C@H](C)C[C@H](N(C)C)[C@H]2O)[C@](C)(O)C[C@@H](C)NC(=O)[C@H](C)[C@@H](O)[C@]1(C)O
- MIC (Streptococcus pneumoniae [1]): 2 µg/mL (≈ 1.99 µM)
- MIC (Haemophilus influenzae): 4 µg/mL (≈ 3.99 µM)
- MIC (Streptococcus pyogenes [2]): < 0.13 µg/mL
- MIC (Streptococcus pyogenes [3]): 8 µg/mL (≈ 7.97 µM)
- MIC (Streptococcus pneumoniae [4]): < 0.13 µg/mL
- MIC (Streptococcus pneumoniae [5]): 32 µg/mL (≈ 31.9 µM)
- MIC (Staphylococcus aureus): 4 µg/mL (≈ 3.99 µM)

Compound: CC[C@H]1OC(=O)[C@H](C)[C@@H](O[C@H]2C[C@@](C)(OC)[C@@H](OC(=O)CCN[C@@H](C)c3ccc([N+](=O)[O-])cc3)[C@H](C)O2)[C@H](C)[C@@H](O[C@@H]2O[C@H](C)C[C@H](N(C)C)[C@H]2O)[C@](C)(O)C[C@@H](C)NC(=O)[C@H](C)[C@@H](O)[C@]1(C)O
- MIC (Streptococcus pneumoniae [1]): 4 µg/mL (≈ 4.13 µM)
- MIC (Haemophilus influenzae): 8 µg/mL (≈ 8.25 µM)
- MIC (Streptococcus pyogenes [2]): < 0.13 µg/mL
- MIC (Streptococcus pyogenes [3]): 4 µg/mL (≈ 4.13 µM)
- MIC (Streptococcus pneumoniae [4]): < 0.13 µg/mL
- MIC (Streptococcus pneumoniae [5]): 16 µg/mL (≈ 16.5 µM)
- MIC (Staphylococcus aureus): 4 µg/mL (≈ 4.13 µM)

Compound: CC[C@H]1OC(=O)[C@H](C)[C@@H](O[C@H]2C[C@@](C)(OC)[C@@H](OC(=O)CCN[C@H](C)c3ccc([N+](=O)[O-])cc3)[C@H](C)O2)[C@H](C)[C@@H](O[C@@H]2O[C@H](C)C[C@H](N(C)C)[C@H]2O)[C@](C)(O)C[C@@H](C)NC(=O)[C@H](C)[C@@H](O)[C@]1(C)O
- MIC (Streptococcus pneumoniae [1]): 4 µg/mL (≈ 4.13 µM)
- MIC (Haemophilus influenzae): 4 µg/mL (≈ 4.13 µM)
- MIC (Streptococcus pyogenes [2]): < 0.13 µg/mL
- MIC (Streptococcus pyogenes [3]): 8 µg/mL (≈ 8.25 µM)
- MIC (Streptococcus pneumoniae [4]): < 0.13 µg/mL
- MIC (Streptococcus pneumoniae [5]): 32 µg/mL (≈ 33 µM)
- MIC (Staphylococcus aureus): 4 µg/mL (≈ 4.13 µM)

Compound: CC[C@H]1OC(=O)[C@H](C)[C@@H](O[C@H]2C[C@@](C)(OC)[C@@H](OC(=O)CCN[C@@H](C)C(=O)Nc3ccc4ccccc4c3)[C@H](C)O2)[C@H](C)[C@@H](O[C@@H]2O[C@H](C)C[C@H](N(C)C)[C@H]2O)[C@](C)(O)C[C@@H](C)NC(=O)[C@H](C)[C@@H](O)[C@]1(C)O
- MIC (Streptococcus pneumoniae [1]): 0.5 µg/mL (≈ 0.492 µM)
- MIC (Haemophilus influenzae): 2 µg/mL (≈ 1.97 µM)
- MIC (Streptococcus pyogenes [2]): < 0.13 µg/mL
- MIC (Streptococcus pyogenes [3]): 8 µg/mL (≈ 7.86 µM)
- MIC (Streptococcus pneumoniae [4]): < 0.13 µg/mL
- MIC (Streptococcus pneumoniae [5]): 32 µg/mL (≈ 31.5 µM)
- MIC (Staphylococcus aureus): 2 µg/mL (≈ 1.97 µM)

Compound: CC[C@H]1OC(=O)[C@H](C)[C@@H](O[C@H]2C[C@@](C)(OC)[C@@H](OC(=O)CCN[C@@H](C)C(=O)Nc3ccc([N+](=O)[O-])cc3)[C@H](C)O2)[C@H](C)[C@@H](O[C@@H]2O[C@H](C)C[C@H](N(C)C)[C@H]2O)[C@](C)(O)C[C@@H](C)NC(=O)[C@H](C)[C@@H](O)[C@]1(C)O
- MIC (Streptococcus pneumoniae [1]): 2 µg/mL (≈ 1.98 µM)
- MIC (Haemophilus influenzae): 4 µg/mL (≈ 3.95 µM)
- MIC (Streptococcus pyogenes [2]): < 0.13 µg/mL
- MIC (Streptococcus pyogenes [3]): 4 µg/mL (≈ 3.95 µM)
- MIC (Streptococcus pneumoniae [4]): < 0.13 µg/mL
- MIC (Streptococcus pneumoniae [5]): 32 µg/mL (≈ 31.6 µM)
- MIC (Staphylococcus aureus): 4 µg/mL (≈ 3.95 µM)

Compound: CC[C@H]1OC(=O)[C@H](C)[C@@H](O[C@H]2C[C@@](C)(OC)[C@@H](OC(=O)CCN3CCN(C(=O)c4ccco4)CC3)[C@H](C)O2)[C@H](C)[C@@H](O[C@@H]2O[C@H](C)C[C@H](N(C)C)[C@H]2O)[C@](C)(OC)C[C@@H](C)NC(=O)[C@H](C)[C@@H](O)[C@]1(C)O
- MIC (Streptococcus pneumoniae [1]): 2 µg/mL (≈ 2.01 µM)
- MIC (Haemophilus influenzae): 4 µg/mL (≈ 4.01 µM)
- MIC (Streptococcus pyogenes [2]): < 0.13 µg/mL
- MIC (Streptococcus pyogenes [3]): 16 µg/mL (≈ 16 µM)
- MIC (Streptococcus pneumoniae [4]): < 0.13 µg/mL
- MIC (Streptococcus pneumoniae [5]): 32 µg/mL (≈ 32.1 µM)
- MIC (Staphylococcus aureus): 2 µg/mL (≈ 2.01 µM)

Compound: CC[C@H]1OC(=O)[C@H](C)[C@@H](O[C@H]2C[C@@](C)(OC)[C@@H](OC(=O)CCNCC(=O)Nc3ccc4ccccc4c3)[C@H](C)O2)[C@H](C)[C@@H](O[C@@H]2O[C@H](C)C[C@H](N(C)C)[C@H]2O)[C@](C)(OC)C[C@@H](C)NC(=O)[C@H](C)[C@@H](O)[C@]1(C)O
- MIC (Streptococcus pneumoniae [1]): 2 µg/mL (≈ 1.97 µM)
- MIC (Haemophilus influenzae): 2 µg/mL (≈ 1.97 µM)
- MIC (Streptococcus pyogenes [2]): < 0.13 µg/mL
- MIC (Streptococcus pyogenes [3]): 16 µg/mL (≈ 15.7 µM)
- MIC (Streptococcus pneumoniae [4]): < 0.13 µg/mL
- MIC (Streptococcus pneumoniae [5]): 16 µg/mL (≈ 15.7 µM)
- MIC (Staphylococcus aureus): 1 µg/mL (≈ 0.983 µM)

Compound: CC[C@H]1OC(=O)[C@H](C)[C@@H](O[C@H]2C[C@@](C)(OC)[C@@H](OC(=O)CCNCC(=O)Nc3ccc([N+](=O)[O-])cc3)[C@H](C)O2)[C@H](C)[C@@H](O[C@@H]2O[C@H](C)C[C@H](N(C)C)[C@H]2O)[C@](C)(OC)C[C@@H](C)NC(=O)[C@H](C)[C@@H](O)[C@]1(C)O
- MIC (Streptococcus pneumoniae [1]): 2 µg/mL (≈ 1.98 µM)
- MIC (Haemophilus influenzae): 2 µg/mL (≈ 1.98 µM)
- MIC (Streptococcus pyogenes [2]): < 0.13 µg/mL
- MIC (Streptococcus pyogenes [3]): 4 µg/mL (≈ 3.95 µM)
- MIC (Streptococcus pneumoniae [4]): < 0.13 µg/mL
- MIC (Streptococcus pneumoniae [5]): 16 µg/mL (≈ 15.8 µM)
- MIC (Staphylococcus aureus): 1 µg/mL (≈ 0.988 µM)

Compound: CC[C@H]1OC(=O)[C@H](C)[C@@H](O[C@H]2C[C@@](C)(OC)[C@@H](OC(=O)CCN[C@@H](C)c3ccc([N+](=O)[O-])cc3)[C@H](C)O2)[C@H](C)[C@@H](O[C@@H]2O[C@H](C)C[C@H](N(C)C)[C@H]2O)[C@](C)(OC)C[C@@H](C)NC(=O)[C@H](C)[C@@H](O)[C@]1(C)O
- MIC (Streptococcus pneumoniae [1]): 2 µg/mL (≈ 2.03 µM)
- MIC (Haemophilus influenzae): 32 µg/mL (≈ 32.5 µM)
- MIC (Streptococcus pyogenes [2]): < 0.13 µg/mL
- MIC (Streptococcus pyogenes [3]): 4 µg/mL (≈ 4.07 µM)
- MIC (Streptococcus pneumoniae [4]): < 0.13 µg/mL
- MIC (Streptococcus pneumoniae [5]): > 32 µg/mL
- MIC (Staphylococcus aureus): 2 µg/mL (≈ 2.03 µM)

Compound: CC[C@H]1OC(=O)[C@H](C)[C@@H](O[C@H]2C[C@@](C)(OC)[C@@H](OC(=O)CCN[C@H](C)c3ccc([N+](=O)[O-])cc3)[C@H](C)O2)[C@H](C)[C@@H](O[C@@H]2O[C@H](C)C[C@H](N(C)C)[C@H]2O)[C@](C)(OC)C[C@@H](C)NC(=O)[C@H](C)[C@@H](O)[C@]1(C)O
- MIC (Streptococcus pneumoniae [1]): 2 µg/mL (≈ 2.03 µM)
- MIC (Haemophilus influenzae): 32 µg/mL (≈ 32.5 µM)
- MIC (Streptococcus pyogenes [2]): < 0.13 µg/mL
- MIC (Streptococcus pyogenes [3]): 4 µg/mL (≈ 4.07 µM)
- MIC (Streptococcus pneumoniae [4]): < 0.13 µg/mL
- MIC (Streptococcus pneumoniae [5]): > 32 µg/mL
- MIC (Staphylococcus aureus): 1 µg/mL (≈ 1.02 µM)

Compound: CC[C@H]1OC(=O)[C@H](C)[C@@H](O[C@H]2C[C@@](C)(OC)[C@@H](OC(=O)CCN[C@@H](C)C(=O)Nc3ccc([N+](=O)[O-])cc3)[C@H](C)O2)[C@H](C)[C@@H](O[C@@H]2O[C@H](C)C[C@H](N(C)C)[C@H]2O)[C@](C)(OC)C[C@@H](C)NC(=O)[C@H](C)[C@@H](O)[C@]1(C)O
- MIC (Streptococcus pneumoniae [1]): 0.5 µg/mL (≈ 0.487 µM)
- MIC (Haemophilus influenzae): 2 µg/mL (≈ 1.95 µM)
- MIC (Streptococcus pyogenes [2]): < 0.13 µg/mL
- MIC (Streptococcus pyogenes [3]): 1 µg/mL (≈ 0.974 µM)
- MIC (Streptococcus pneumoniae [4]): < 0.13 µg/mL
- MIC (Streptococcus pneumoniae [5]): 16 µg/mL (≈ 15.6 µM)
- MIC (Staphylococcus aureus): 0.5 µg/mL (≈ 0.487 µM)

Compound: CC[C@H]1OC(=O)[C@H](C)[C@@H](O[C@H]2C[C@@](C)(OC)[C@@H](OC(=O)CCNCCNc3cccc4ccccc34)[C@H](C)O2)[C@H](C)[C@@H](O[C@@H]2O[C@H](C)C[C@H](N(C)C)[C@H]2O)[C@](C)(OC)C[C@@H](C)NC(=O)[C@H](C)[C@@H](O)[C@]1(C)O
- MIC (Streptococcus pneumoniae [1]): 2 µg/mL (≈ 1.99 µM)
- MIC (Streptococcus pyogenes [2]): < 0.13 µg/mL
- MIC (Streptococcus pyogenes [3]): 4 µg/mL (≈ 3.99 µM)
- MIC (Streptococcus pneumoniae [4]): < 0.13 µg/mL
- MIC (Streptococcus pneumoniae [5]): > 32 µg/mL
- MIC (Staphylococcus aureus): 1 µg/mL (≈ 0.997 µM)
